This is an account of results in US20050215529A1, “Method of treating oxidative stress-associated conditions with isopentenyl diphosphate” (THE REGENTS OF THE UNIVERSITY OF MICHIGAN, priority 2004, published 2005).

The subject of assay [1] is human fibroblastoid M1 cells. The assay is described as follows: Comet assay, inhibition of 2CA- or IPP-mediated DNA damage protection by antagonists/inhibitors. The note with it: for IC50: AR antagonists, M1 cells, 100 μM H2O2, Comet assay, read-out: IC50 (pM), block of 2CA-mediated DNA damage protection; for effect on 2CA-mediated DNA damage protection / effect on IPP-mediated DNA damage protection: M1 cells pre-incubated with antagonist/inhibitor (lactacystin 5 μM, lovastatin 5 μM, GGTI-2147 0.2 μM, FTI-277 1 μM; others various concentrations), then 100 μM H2O2; for effect on 2CA-mediated DNA damage protection: then 2CA; for effect on IPP-mediated DNA damage protection: then IPP. The class given is cell-based. Here is the method: (§1) A single-cell gel electrophoresis (SCGE) assay, known as the “Comer” assay was performed to detect/quantify DNA damage by identifying DNA-strand breakage in individual cells, for example. The assay was performed using a kit commercially-available from Trevigen, Inc., of Gaithersburg, Md., as “CometAssay™.” See P. J. McCarthy et al. (1997) Mutagenesis 12:209-214; A. R. Collins et al. (2001) Biochem. Soc. Trans. 29:337-341. Sub-confluent cells were washed with phosphate buffered saline (PBS) and detached from the tissue culture flasks using a 0.05% trypsin solution. After centrifugation, the cells were washed and re-suspended in serum-free DMEM medium. The cells were divided into Eppendorf tubes (1.5 ml), and centrifuged at 2500 rotations per minutes (rpm) for ten minutes. Signal-modulating agents were added and samples were kept in a 37° C. incubator for thirty minutes. In some experiments, the cells were pre-incubated with various inhibitors for the indicated times at 37° C. At the end of the incubation period with signal-modulating chemicals, the cells were washed with PBS and treated with 100 μM H2O2 in 0.5 ml PBS on ice for twenty minutes. Following the hydrogen peroxide treatment, the cells were immediately microfuged for fifteen seconds. The cells were twice washed with cold PBS, and re-suspended at 1.0×10^5 cells/ml in ice-cold PBS. Five microliter cell suspension were each mixed with 50 μl molten LMAgarose and, thereafter, the mixtures were placed onto slides (CometSlide™).
(§2) The slides were placed at 4° C. in the dark for ten minutes and subsequently immersed in pre-chilled Lysis Solution at 4° C. for an additional thirty minutes. Following this incubation, excess buffer was tapped off from the slides. Subsequently, the slides were placed in a 50 ml Coplin jar containing alkali buffer for thirty minutes at room temperature in the dark and then immersed in 50 ml of TBE buffer for five minutes. The slides were then placed flat onto a gel tray submerged in TBE buffer in a horizontal electrophoresis apparatus, and aligned equidistant from the electrodes. Electrophoresis was performed at one volt per centimeter (cm) for ten minutes. Following this electrophoresis, the samples were fixed in 100% methanol for five minutes and 100% ethanol for five minutes. After drying, 50 μl of diluted SYBR Green Concentrate was added onto each circle of agarose. Comet tail fluorescence intensity was quantified with a Diagnostic Instruments digitized camera, mounted on a Nikon Eclipse E400 microscope, using Scion Image software. Quantification of comet fluorescence was performed as described in P. J. McCarthy et al. (1997) Mutagenesis 12:209-214. Each data point was derived from 30 to 100 individual cells. The data are shown either in arbitrary fluorescent units, or as % DNA damage protection (i.e., the percent decrement in tail fluorescence intensity with test reagent, relative to the intensity recorded in cells treated with hydrogen peroxide only)±S.E.M.
Specifically, […], human fibroblastoid M1 cells were incubated for thirty minutes in either H-89 or 8-bromoguanosine-3′,5′-cyclic monophosphate (8-Br-cGMP) (B), or for fifteen minutes in SNAP, at different concentrations. […] Following induction of oxidative stress, DNA damage was quantified using the Comet assay, as described above. Shown in FIGS. 14-16 are graphs illustrating the DNA damage protection as function of the molar concentration of H-89 (FIG. 14), 8-Br-cGMP (FIG. 15), and SNAP (FIG. 16).
In yet another test, human fibroblastoid M1 cells were pre-incubated for fifteen minutes with different concentrations of the A2bAR antagonist, enprofylline (Enpro).

In assay [2] the test system is human fibroblastoid M1 cells. The assay can be described thus: Comet assay, protection against H2O2-induced DNA damage. The class given is cell-based. The note with it: M1 cells; for IC50: AR agonists and isoprenyls, 100 μM H2O2, Comet assay, read-out: IC50 (pM), DNA damage protection; for triggering of DNA damage protection: various concentrations, 100 μM H2O2. Here is the method: as §1, §2
A dose response analysis of DNA damage protection also was performed to determine the efficacy of various doses of isopentenyl diphosphate versus 2-chloroadenosine. The analysis was carried out by pre-incubating human fibroblastoid M1 cells for thirty minutes with different concentrations of isopentenyl diphosphate or 2-chloroadenosine prior to incubating the cells with 100 μM H2O2 to induce oxidative stress. Following induction of oxidative stress, DNA damage was quantified using the Comet assay, as described above.

For assay [3], the system named is A1AR-transfected HEK293 cells. The assay is described as follows: Comet assay in A1AR-transfected HEK293 cells. The class given is cell-based, human. The note with it: A1AR-transfected HEK293 cells, 100 μM H2O2. Here is the method: A single-cell gel electrophoresis (SCGE) assay, known as the “Comer” assay was performed to detect/quantify DNA damage by identifying DNA-strand breakage in individual cells, for example. The assay was performed using a kit commercially-available from Trevigen, Inc., of Gaithersburg, Md., as “CometAssay™.” See P. J. McCarthy et al. (1997) Mutagenesis 12:209-214; A. R. Collins et al. (2001) Biochem. Soc. Trans. 29:337-341. Sub-confluent cells were washed with phosphate buffered saline (PBS) and detached from the tissue culture flasks using a 0.05% trypsin solution. After centrifugation, the cells were washed and re-suspended in serum-free DMEM medium. The cells were divided into Eppendorf tubes (1.5 ml), and centrifuged at 2500 rotations per minutes (rpm) for ten minutes. Signal-modulating agents were added and samples were kept in a 37° C. incubator for thirty minutes. In some experiments, the cells were pre-incubated with various inhibitors for the indicated times at 37° C. At the end of the incubation period with signal-modulating chemicals, the cells were washed with PBS and treated with 100 μM H2O2 in 0.5 ml PBS on ice for twenty minutes. Following the hydrogen peroxide treatment, the cells were immediately microfuged for fifteen seconds. The cells were twice washed with cold PBS, and re-suspended at 1.0×10^5 cells/ml in ice-cold PBS. […]
The slides were placed at 4° C. in the dark for ten minutes and subsequently immersed in pre-chilled Lysis Solution at 4° C. for an additional thirty minutes. […] Comet tail fluorescence intensity was quantified with a Diagnostic Instruments digitized camera, mounted on a Nikon Eclipse E400 microscope, using Scion Image software. Quantification of comet fluorescence was performed as described in P. J. McCarthy et al. (1997) Mutagenesis 12:209-214. […] The data are shown either in arbitrary fluorescent units, or as % DNA damage protection (i.e., the percent decrement in tail fluorescence intensity with test reagent, relative to the intensity recorded in cells treated with hydrogen peroxide only)±S.E.M. […]

Structures are written as SMILES.

With `CCCn1c(=O)c2[nH]c(-c3ccc(OCC(=O)NCCN)cc3)nc2n(CCC)c1=O` [XAC, xanthine amine congener], in assay [1], the IC50 is 3.2e+06 pM and the “effect on 2CA-mediated DNA damage protection” value was “effectively blocked the signal”. `Nc1nc2c(nc(Br)n2[C@@H]2O[C@@H]3COP(=O)(O)O[C@H]3[C@H]2O)c(=O)[nH]1` [8-Br-cGMP, 8-bromoguanosine-3′,5′-cyclic monophosphate]: the “effect on 2CA-mediated DNA damage protection” value in assay [1] is given as “dose-dependent inhibition of 2CA-mediated antioxidative signal”. As for `CNC(=O)[C@H]1O[C@@H](n2cnc3c(NCc4cccc(I)c4)ncnc32)[C@H](O)[C@@H]1O` [IB-MECA, N6-(3-iodobenzyl)adenosine-5′-N-methyluronamide], in assay [2], the IC50 was over 1e+07 pM and the “triggering of DNA damage protection” value is recorded as “failed to transduce the signal”.

With `CC(=O)N[C@@H](C(=O)O)C(C)(C)SN=O` (racemic) [SNAP], the “effect on 2CA-mediated DNA damage protection” value in assay [1] was “dose-dependent inhibition of 2CA-mediated antioxidative signal”.

With `CC(=O)N[C@@H](CSC(=O)[C@]1([C@@H](O)C(C)C)NC(=O)[C@H](C)[C@@H]1O)C(=O)O` [lactacystin], in assay [1], the “effect on 2CA-mediated DNA damage protection” value was “did not similarly block 2CA-mediated DNA damage protection signaling” and the “effect on IPP-mediated DNA damage protection” value is given as “blocked IPP-mediated DNA damage protection signaling”. Consider `CC(C)=CCC/C(C)=C/CC/C(C)=C/CO[P@@](=O)(O)OP(=O)(O)O` (stereo in doubt) [FPP, farnesyl diphosphate], for which, in assay [2] (Homo sapiens), the IC50 was over 1e+07 pM.

As to `C=C(C)CCOP(=O)(O)O` [IMP, isopentenyl monophosphate], in assay [2], the IC50 is over 1e+07 pM and the “triggering of DNA damage protection” value is listed as “failed to trigger antioxidative signaling”. Taken in the same sequence, the figures for `CC(C)=CCC/C(C)=C/CC/C(C)=C/CC/C(C)=C/COP(=O)(O)OP(=O)(O)O` [GGPP, geranylgeranyl diphosphate] were 660 pM and “effective in triggering antioxidative activity”. Turning to `COC(=O)[C@H](CC(C)C)NC(=O)c1ccc(NCc2cnc[nH]2)cc1-c1cccc2ccccc12` [GGTI-2147], in assay [1], the “effect on 2CA-mediated DNA damage protection” value is given as “Neither GGTI-2147 (FIG. 24B) nor FTI-277 (FIG. 25) had a significant effect” and the “effect on IPP-mediated DNA damage protection” value is reported as “effectively blocked IPP-mediated DNA damage protection”. `O=S(=O)(NCCNCC=Cc1ccc(Br)cc1)c1cccc2cnccc12` [H-89, N-[2-(p-bromocynnamylamino)ethyl]-5-isoquinolinesulfonamide]: in assay [1], the “effect on 2CA-mediated DNA damage protection” value was “dose-dependent inhibition of 2CA-mediated antioxidative signal” and the “effect on IPP-mediated DNA damage protection” value is on record as “the IPP-mediated effect was resistant”. With `CCCn1c(=O)c2[nH]c(C3CCCC3)nc2n(CCC)c1=O` [DPCPX, [(3)H]1,3-dipropyl-8-cyclopentylxanthine], in assay [1], the IC50 is over 1e+07 pM and the “effect on 2CA-mediated DNA damage protection” value is listed as “failed to block 2CA-mediated DNA damage protection”. For `CCNC(=O)[C@H]1O[C@@H](n2cnc3c(N)nc(NCCc4ccc(CCC(=O)O)cc4)nc32)[C@H](O)[C@@H]1O` [CGS21680, 2-[p-2-(carbonyl-ethyl)-phenyethylamino]-5′-N-ethylcarboxaminoadenosine], in assay [2] (Homo sapiens), the half-inhibitory concentration (IC50) was over 3e+07 pM. In assay [2], the “triggering of DNA damage protection” value was “failed to transduce the signal”. In the case of `COC(=O)[C@H](CCSC)NC(=O)c1ccc(NC[C@@H](N)CS)cc1-c1ccccc1` [FTI-277], in assay [1], the “effect on 2CA-mediated DNA damage protection” value is “Neither GGTI-2147 (FIG. 24B) nor FTI-277 (FIG. 25) had a significant effect” and the “effect on IPP-mediated DNA damage protection” value is listed as “had no effect on isopentenyl diphosphate activity”. In the case of `CCCn1c(=O)[nH]c(=O)c2nc[nH]c21` [Enprofylline, enprofylline], in assay [1], the IC50 is 1.8e+06 pM, the “effect on 2CA-mediated DNA damage protection” value is “effectively blocked the signal” and the “effect on IPP-mediated DNA damage protection” value was “the IPP-mediated effect was resistant”. As for `CCNC(=O)C1OC(n2cnc3c(N)ncnc32)C(O)C1O` (centres unmarked) [NECA, 5′-(N-ethylcarboxyamido)-adenosine], in assay [2], the IC50 was under 1000 pM and the “triggering of DNA damage protection” value is given as “triggered DNA damage protection”. Regarding `Nc1ncnc2c1nc(Br)n2[C@@H]1O[C@@H]2COP(=O)(O)O[C@H]2[C@H]1O` [8-Br-cAMP, 8-bromo adenosine 3′,5′-cyclic monophosphate], the “triggering of DNA damage protection” value in assay [2] is given as “produced similar protection against oxidative DNA damage”. In addition, the “DNA damage protection response” value in assay [3] is given as “responded efficiently”. As to `Cn1c(=O)c2c(nc(C=Cc3cccc(Cl)c3)n2C)n(C)c1=O` [CSC, 8-(3-chlorostyryl) caffeine], in assay [1] (Homo sapiens), the concentration for half-maximal inhibition (IC50) was over 1e+07 pM. Moreover, in assay [1], the “effect on 2CA-mediated DNA damage protection” value was “failed to block 2CA-mediated DNA damage protection”. Take `CCCCC[C@H](O)/C=C/[C@H]1[C@H](O)CC(=O)[C@@H]1CCCCCCC(=O)O` [PGE1, Prostaglandin E1]: the “triggering of DNA damage protection” value in assay [2] is given as “induction of resistance to oxidative DNA damage”. Turning to `CC[C@H](C)C(=O)O[C@H]1C[C@@H](C)C=C2C=C[C@H](C)[C@H](CC[C@@H]3C[C@@H](O)CC(=O)O3)[C@H]21` [lovastatin], in assay [1], the “effect on 2CA-mediated DNA damage protection” value is on record as “did not similarly block 2CA-mediated DNA damage protection signaling” and the “effect on IPP-mediated DNA damage protection” value was “completely blocked IPP-mediated DNA damage protection signaling”.

One may read the IC50 as the concentration that gives 50% inhibition.
